According to patent US20090291153A1, “Health food, Method for producing the same and dried Product and Extract” (priority 2004, published 2009):

Experiments:
[1] = tested on: AR42J cells (ATCC CRL 1492); assay: Morphological change of AR42J cells as marker of induced differentiation into insulin-producing cells; format: cell-based; details: final concentration 0.1 μg/ml, three days, FIG. 1B
Description: Thus, it was examined whether an extract of Ervatamia microphylla can induce AR42J cells to differentiate into insulin-producing cells. It should be noted that, since characteristic morphological changes of cells are observed as differentiation into insulin-producing cells is induced, morphological changes in AR42J cell were examined as a marker of differentiation induction in this Example. AR42J cells were cultured in the media prepared by sterilizing Dulbecco modification Eagle' medium (DMEM; Nissui Pharmaceutical Co., Ltd.) by filtration after its pH was adjusted to 7.4 in the presence of 20 mM HEPES-NaOH and adding 0.6 g/l glutamine (Kanto Chemical Co., Inc: Tokyo, Japan), 0.2 g/l kanamycin (Sigma Chemical Science; Sigma: St.Louis, Mo., USA), 100 unit/ml penicillin G (Sigma), 5 mM NaHCO3, and 10% fetal bovine serum (FBS; Sigma).
500 μl of a suspension of AR42J cells (4.0×10^5 cells/ml per culture medium) was plated into each well of 24-well plastic plates (Corning) at 2×10^5 cells/well and cultured under the conditions of 37° C. and 5% CO2. […]

[2] = tested on: streptozotocin-induced diabetic rats; assay: Blood glucose levels of streptozotocin-administered rats; format: in vivo, Wistar rats; details: 5 μg/g BW subcutaneously for seven consecutive days from day 1 after streptozotocin 85 μg/g BW i.p.; P<0.05 / P<0.01 vs Control
Description: Ten 1-day-old Wistar rats (purchased from Japan SLC, Shizuoka, Japan) were intraperitoneally injected with streptozotocin (purchased from Wako Pure Chemical Industries, Ltd., dissolved in […] citrate buffer (pH 4.5)) at 85 μg/g BW per rat. Streptozotocin decreases insulin production by destroying pancreatic cells, thereby inducing diabetes. The day of streptozotocin injection was defined as day 0. Starting from the next day (day 1), five rats were injected subcutaneously with a solution (ethanol) of conophylline at 5 μg/g BW for seven consecutive days and their blood glucose levels were measured at a predetermined time daily. Five rats in the control group received the same volume of solvent (control).

[3] = tested on: K-ras-NRK cells; assay: Morphological change of K-ras-NRK cells; format: cell-based; details: final concentration 0.1 μg/ml, three days, FIG. 4
From the text: Conophylline is known to induce a morphological change of K-ras-NRK cells. Thus, it was examined whether an extract of Ervatamia microphylla leaves induces morphological changes of K-ras-NRK cells. It is also known that leaves of the Malaysian Tabernaemontana contains conophylline (Org. Biomol. Chem. 1: 1292-1297, 2003). Thus, it was examined that whether an extract of leaves of crape jasmine, the Japanese Tabernaemontana divaricata, also induces morphological changes in K-ras-NRK cells. An extract of each plant was prepared, in the same manner as described in Example 1, by extracting the active ingredient contained in the leaves with methanol, then removing solids by suction filtration, followed by concentring and drying, and dissolving the resulting powder into methanol.
500 μl of a suspension ([…] per culture medium (DMEM containing 5% FBS, 0.6 g/l glutamine, 0.2 g/l kanamycin, 2.25 g/l NaHCO3)) of K-Ras-NRK cells was added to each well of 24-well plastic plates at 2.0×10^4 cells/well, and the plates were incubated at 37° C. under 5% CO2. The next day, conophylline (final concentration: 0.1 μg/ml), an extract of Ervatamia microphylla leaves (final concentration: 10 μg/ml), and an extract of crape jasmine leaves (final concentration: 10 μg/ml) were added to the culture medium, which was incubated at 37° C. under the condition of 5% CO2 for three days. […]

[4] = tested on: pancreatic acinar carcinoma AR42J-B13 cells; details: cited from earlier work

With CC[C@@]12CC(C(=O)OC)=C3Nc4cc5c(cc4[C@@]34CCN(C[C@H]3O[C@H]31)[C@@H]24)[C@@H]1[C@H](O5)[C@@H](O)[C@@]2(CC)CC(C(=O)OC)=C3Nc4c(cc(O)c(OC)c4OC)[C@@]34CCN1[C@@H]24 [conophylline] the “morphological change of AR42J cells (induction of differentiation into insulin-producing cells)” value [1] was “undergo a morphological change from small spherical cells to flat cells partly with processes”, the “blood glucose level compared with the control” value [2] was “apparent decrease in blood glucose levels” and the “morphological change of K-ras-NRK cells” value [3] was “undergo a morphological change”. The “induction of differentiation into insulin-producing cells” value ([4]; Abstracts of the 45th Annual Meeting of the Japan Diabetes Society, 2002) was “induces differentiation of pancreatic acinar carcinoma AR42J-B13 cells into insulin-producing cells” and the “insulin release from the induced insulin-producing cells” value ([4]; same literature condition) was “do not release insulin from the cells”.
